These are literature values, as cited in patent US20240300988A1, “CRYSTALLINE FORMS OF PENTAAZA MACROCYCLIC RING COMPLEX” (Galera Labs, LLC, priority 2023, published 2024).

The structures appear in SMILES notation.

In the data set the test system is VEGFr inhibitor-induced pulmonary disease. The following applies: rat model; Tuder et al., Am. J. Respir. Cell Mol. Biol., 29, 88-97 (2003).

With `[Cl][Mn][Cl].c1cc2nc(c1)CN[C@H]1CCCC[C@@H]1NCCN[C@H]1CCCC[C@@H]1NC2` [GC4419], the “effect on VEGFr inhibitor-induced pulmonary disease” value is listed as “attenuate VEGFr inhibitor-induced pulmonary disease”.
